Tests used:
Format in all cases: biochemical
Conditions in all cases: 3 μM; percent of control kinase activity
Aurora-A(h) = target: T1, Aurora-A(h) (Homo sapiens, UniProt O14965); test: Aurora-A(h) kinase assay
T1 sequence (O14965 1-403): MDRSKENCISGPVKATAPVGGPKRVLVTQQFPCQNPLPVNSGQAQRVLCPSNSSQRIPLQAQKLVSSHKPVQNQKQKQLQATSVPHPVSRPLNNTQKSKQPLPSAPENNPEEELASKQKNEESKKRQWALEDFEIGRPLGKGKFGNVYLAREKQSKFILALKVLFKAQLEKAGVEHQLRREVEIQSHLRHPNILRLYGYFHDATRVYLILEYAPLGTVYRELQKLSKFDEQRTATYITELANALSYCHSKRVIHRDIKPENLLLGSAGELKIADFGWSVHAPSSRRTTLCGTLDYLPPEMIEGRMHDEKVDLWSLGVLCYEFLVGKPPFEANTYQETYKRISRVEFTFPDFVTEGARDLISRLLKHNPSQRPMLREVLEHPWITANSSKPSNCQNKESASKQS
Procedure: (§1) Six compounds (presumptive single agents) were tested against a panel of 50 kinases. The results are presented in Table 2; numbers for each kinase indicate the percent of control kinase activity in the presence of a 3μM concentration of the indicated agent.
(§2) Agents that target two or more different kinases are useful in the methods of the invention as described elsewhere herein. Such compounds may be identified, and their effect on certain kinases may be identified, using the assays briefly described below in Examples 4-83. Each of these assays was carried out as described in Davies et al., Biochem. J., 351:95-105 (2000). All assays were carried out at 10 μM ATP unless otherwise noted.

CDK7/cyclinH/MAT1 = CDK7/cyclinH/MAT1 (Homo sapiens, UniProt P50613); test: CDK7/cyclinH/MAT1 kinase assay
Procedure: as §1, §2
In a final reaction volume of 25 μl, CDK7/cyclinH/MAT1 (h) (5-10 mU) is incubated with 8 mM MOPS pH 7.0, 0.2 mM EDTA, 500 μM peptide, 10 mM MgAcetate and [γ-^33P-ATP] [specific activity approx. 500 cpm/pmol, concentration as required). The reaction is initiated by the addition of Mg^2+ [γ-33 P-ATP]. After incubation for 40 minutes at room temperature, the reaction is stopped by the addition of 5 μl of a 3% phosphoric acid solution. 10 μl of the reaction is then spotted onto a P30 filtermat and washed three times for 5 minutes in 75 mM phosphoric acid and once in methanol prior to drying and scintillation counting.

CSK(h) = CSK(h) (Homo sapiens, UniProt P41240); test: CSK(h) kinase assay
Procedure: as §1, §2
(§3) In a final reaction volume of 25 μl, CSK (h) (5-10 mU) is incubated with 50 mM Tris pH 7.5, 0.1 mM EGTA, 0.1 mM NaVanadate, 0.1% β-mercaptoethanol, 0.1 mg/ml poly(Glu, Tyr) 4:1, 10 mM MnCl2, 10 mM MgAcetate and [γ-^33P-ATP] (specific activity approx. 500 cpm/pmol, concentration as required). The reaction is initiated by the addition of Mg^2+ [γ-^33P-ATP]. After incubation for 40 minutes at room temperature, the reaction is stopped by the addition of 5 μl of a 3% phosphoric acid solution. 10 μl of the reaction is then spotted onto a Filtermat A and washed three times for 5 minutes in 75 mM phosphoric acid and once in methanol prior to drying and scintillation counting.

IR(h) = IR(h) (Homo sapiens, UniProt P06213); test: IR(h) kinase assay
Procedure: as §1, §2
as §3, with “IR” for “CSK”, “250 μM […] (SEQ ID NO: 15),” for “0.1 mg/ml poly(Glu, Tyr) 4:1,”, “(Specific” for “(specific”, “P30 filtermat” for “Filtermat A”

PKD2(h) = target: T2, PKD2(h) (Homo sapiens, UniProt Q9BZL6); test: PKD2(h) kinase assay
T2 sequence (Q9BZL6 1-878): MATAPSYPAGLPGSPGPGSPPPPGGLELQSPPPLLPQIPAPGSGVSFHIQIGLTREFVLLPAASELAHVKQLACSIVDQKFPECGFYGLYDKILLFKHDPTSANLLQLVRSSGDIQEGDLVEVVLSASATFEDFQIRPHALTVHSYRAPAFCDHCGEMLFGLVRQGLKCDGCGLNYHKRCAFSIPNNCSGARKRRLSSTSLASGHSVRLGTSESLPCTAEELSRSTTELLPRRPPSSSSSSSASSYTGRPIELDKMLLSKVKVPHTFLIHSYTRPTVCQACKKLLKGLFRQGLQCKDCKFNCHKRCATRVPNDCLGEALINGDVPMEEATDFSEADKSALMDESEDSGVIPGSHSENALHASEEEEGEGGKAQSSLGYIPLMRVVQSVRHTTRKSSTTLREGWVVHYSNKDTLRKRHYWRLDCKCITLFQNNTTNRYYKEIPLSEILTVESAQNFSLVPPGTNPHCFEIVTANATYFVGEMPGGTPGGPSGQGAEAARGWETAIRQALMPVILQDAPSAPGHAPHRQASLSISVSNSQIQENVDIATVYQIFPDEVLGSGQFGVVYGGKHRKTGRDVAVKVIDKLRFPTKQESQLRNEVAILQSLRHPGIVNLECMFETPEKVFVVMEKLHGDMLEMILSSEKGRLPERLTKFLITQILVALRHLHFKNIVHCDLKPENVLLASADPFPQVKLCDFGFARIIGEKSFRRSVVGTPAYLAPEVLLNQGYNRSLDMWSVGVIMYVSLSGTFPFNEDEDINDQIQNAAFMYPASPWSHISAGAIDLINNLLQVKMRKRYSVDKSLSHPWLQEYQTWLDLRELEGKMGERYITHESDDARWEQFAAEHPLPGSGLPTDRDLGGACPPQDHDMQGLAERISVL
Procedure: as §1, §2

Chain of CDK7/cyclinH/MAT1 (P50613 whole entry): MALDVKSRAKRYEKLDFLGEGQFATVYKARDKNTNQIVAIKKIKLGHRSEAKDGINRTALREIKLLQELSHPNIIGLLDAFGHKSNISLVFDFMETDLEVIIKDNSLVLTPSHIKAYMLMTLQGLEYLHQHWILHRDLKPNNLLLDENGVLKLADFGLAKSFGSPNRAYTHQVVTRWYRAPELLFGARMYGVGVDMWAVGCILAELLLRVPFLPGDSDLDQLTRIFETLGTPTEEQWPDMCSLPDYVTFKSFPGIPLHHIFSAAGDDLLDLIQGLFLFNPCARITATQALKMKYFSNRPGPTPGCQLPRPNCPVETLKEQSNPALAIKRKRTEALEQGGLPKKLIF
Chain of CDK7/cyclinH/MAT1 (P51946 whole entry partner): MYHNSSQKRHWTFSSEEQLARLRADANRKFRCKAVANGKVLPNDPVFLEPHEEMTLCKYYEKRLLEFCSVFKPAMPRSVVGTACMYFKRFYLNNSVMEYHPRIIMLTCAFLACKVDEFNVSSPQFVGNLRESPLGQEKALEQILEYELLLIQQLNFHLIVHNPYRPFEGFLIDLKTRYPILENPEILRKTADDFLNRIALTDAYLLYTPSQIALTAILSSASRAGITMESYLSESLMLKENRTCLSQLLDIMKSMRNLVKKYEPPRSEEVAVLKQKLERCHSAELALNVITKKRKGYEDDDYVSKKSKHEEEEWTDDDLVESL
Chain of CDK7/cyclinH/MAT1 (P51948 whole entry partner): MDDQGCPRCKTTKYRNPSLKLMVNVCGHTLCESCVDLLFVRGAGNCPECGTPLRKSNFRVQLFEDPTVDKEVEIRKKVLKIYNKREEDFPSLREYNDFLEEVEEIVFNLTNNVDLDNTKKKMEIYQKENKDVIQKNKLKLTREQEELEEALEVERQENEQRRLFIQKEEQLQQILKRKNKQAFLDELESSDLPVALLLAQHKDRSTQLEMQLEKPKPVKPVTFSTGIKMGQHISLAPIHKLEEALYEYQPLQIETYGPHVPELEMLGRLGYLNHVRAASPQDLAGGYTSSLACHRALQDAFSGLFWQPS
Chain of IR(h) (P06213 28-1382): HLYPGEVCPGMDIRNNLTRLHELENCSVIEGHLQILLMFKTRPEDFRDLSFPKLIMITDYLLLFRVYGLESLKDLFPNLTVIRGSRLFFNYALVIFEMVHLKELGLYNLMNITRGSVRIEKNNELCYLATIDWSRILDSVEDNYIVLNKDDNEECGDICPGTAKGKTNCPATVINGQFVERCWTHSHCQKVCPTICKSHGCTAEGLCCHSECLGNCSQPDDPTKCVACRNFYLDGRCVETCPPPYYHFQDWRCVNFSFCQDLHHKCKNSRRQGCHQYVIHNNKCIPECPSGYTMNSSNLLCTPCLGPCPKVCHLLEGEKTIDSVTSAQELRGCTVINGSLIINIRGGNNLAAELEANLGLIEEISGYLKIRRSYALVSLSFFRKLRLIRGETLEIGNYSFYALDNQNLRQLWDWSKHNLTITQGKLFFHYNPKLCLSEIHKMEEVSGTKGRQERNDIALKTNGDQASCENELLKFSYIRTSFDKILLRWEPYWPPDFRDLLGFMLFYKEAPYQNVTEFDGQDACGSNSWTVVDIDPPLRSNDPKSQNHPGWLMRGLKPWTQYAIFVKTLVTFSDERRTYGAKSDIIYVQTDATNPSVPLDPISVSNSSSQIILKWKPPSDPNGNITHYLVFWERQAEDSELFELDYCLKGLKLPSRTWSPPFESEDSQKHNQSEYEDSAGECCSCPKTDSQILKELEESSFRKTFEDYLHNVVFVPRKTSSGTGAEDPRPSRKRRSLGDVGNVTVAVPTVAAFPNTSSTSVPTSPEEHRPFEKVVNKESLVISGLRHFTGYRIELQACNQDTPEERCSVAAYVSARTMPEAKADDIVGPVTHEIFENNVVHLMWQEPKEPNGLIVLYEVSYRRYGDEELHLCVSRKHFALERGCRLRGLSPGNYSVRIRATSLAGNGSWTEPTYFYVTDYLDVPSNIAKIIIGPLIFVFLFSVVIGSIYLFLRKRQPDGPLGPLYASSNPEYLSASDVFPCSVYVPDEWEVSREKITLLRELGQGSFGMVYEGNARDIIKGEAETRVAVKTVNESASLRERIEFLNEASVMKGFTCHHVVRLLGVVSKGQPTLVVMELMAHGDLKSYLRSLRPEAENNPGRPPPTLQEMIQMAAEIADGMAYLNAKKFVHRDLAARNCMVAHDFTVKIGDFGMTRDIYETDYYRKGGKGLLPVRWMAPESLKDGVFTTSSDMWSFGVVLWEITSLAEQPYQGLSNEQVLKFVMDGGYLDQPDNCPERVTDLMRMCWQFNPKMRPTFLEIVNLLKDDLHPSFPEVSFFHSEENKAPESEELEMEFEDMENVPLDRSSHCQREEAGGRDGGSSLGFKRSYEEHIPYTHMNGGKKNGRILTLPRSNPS

Inhibitory activity (% of control), Aurora-A(h) (Aurora-A(h)) | Inhibitory activity (% of control), CDK7/cyclinH/MAT1 (CDK7/cyclinH/MAT1) | Inhibitory activity (% of control), CSK(h) (CSK(h)) | Inhibitory activity (% of control), IR(h) (IR(h)) | Inhibitory activity (% of control), PKD2(h) (PKD2(h)) | SMILES
7 % of control | 19 % of control | 123 % of control | 89 % of control | 26 % of control | CC(C)(C)Cc1nc(-c2ccc3[nH]nc(-c4ccc5cc(OCc6ccccn6)ccc5c4)c3c2)n[nH]1 [CC004, 5-[5-(2,2-Dimethyl-propyl)-1H-[1,2,4]triazol-3-yl]-3-[6-(pyridine-2-ylmethoxy)-naphthalen-2-yl]-1H-indazole]
0 % of control | 7 % of control | 88 % of control | 31 % of control | 0 % of control | CCN1CCC[C@H]1COc1ccc2cc(-c3n[nH]c4ccc(-c5nc(CC(C)(C)C)n[nH]5)cc34)ccc2c1 [CC005, 2-[((2s)-1-ethylpyrrolidin-2-yl)methoxy]-6-{5-[3-(2,2-Dimethylpropyl)(1H-1,2,4,-triazol-5-yl)](1H-indazol-3-yl)}naphthalene]

SMILES | Inhibitory activity (% of control), Aurora-A(h) (Aurora-A(h)) | Inhibitory activity (% of control), CDK7/cyclinH/MAT1 (CDK7/cyclinH/MAT1) | Inhibitory activity (% of control), CSK(h) (CSK(h)) | Inhibitory activity (% of control), IR(h) (IR(h)) | Inhibitory activity (% of control), PKD2(h) (PKD2(h))
COc1ccc2cc(-c3n[nH]c4ccc(-c5n[nH]c(CN6CCOCC6)n5)cc34)ccc2c1 [CC001, 3-(6-Methoxynaphthalen-2-yl)-5-(5-Morpholin-4-Ylmethyl-1H-[1,2,4]Triazol-3-yl)-1H-Indazole] | 7 % of control | 13 % of control | 95 % of control | 74 % of control | 14 % of control
